Data as given in patent US6680177B2, “Low molecular weight heparin assay, system and reagent therefor” (Cardiovascular Diagnostics, Inc., priority 2001, dated 2004).
Where a SMILES comes first, the peptide text is derived from it. Bridges are numbered along the chain shown (N, C = ends). [ ]: non-standard residue; d: D form. hArg = N=C(N)NCCCC[C@H](N)C(=O)O; Mpa = O=C(O)CCS

System: citrated whole blood (CWB)
Test: Interference testing for Rapidpoint ENOX test in citrated whole blood
Format: biochemical
Settings: for EFFECT on ENOX test: CWB; for sensitivity of the ENOX test to the agent: in vitro, citrated whole blood

`N=C(N)NCCCC[C@@H]1NC(=O)CCSSC[C@@H](C(N)=O)NC(=O)[C@@H]2CCCN2C(=O)[C@H](Cc2c[nH]c3ccccc23)NC(=O)[C@H](CC(=O)O)NC(=O)CNC1=O` [Eptifibatide] ([Mpa][hArg]GDWPC-NH2; disulfide 1-7) was tested, and the “EFFECT on ENOX test” value (0-2600 ng/ml) was “No effect at 0-2600 ng/ml” and the “sensitivity of the ENOX test to the agent” value (“sensitivity of the ENOX test” below) was “insensitive”.

For `CC(=O)Oc1ccccc1C(=O)O` [Aspirin], the “EFFECT on ENOX test” value (0-300 ug/ml) was “No effect at 0-300 ug/ml” and the “sensitivity of the ENOX test” value was “insensitive”.

With `O=[N+]([O-])OCC(CO[N+](=O)[O-])O[N+](=O)[O-]` [Nitroglycerin] the “EFFECT on ENOX test” value (0-1000 ng/ml) was “No effect at 0-1000 ng/ml”.

With `CCCCS(=O)(=O)N[C@@H](Cc1ccc(OCCCCC2CCNCC2)cc1)C(=O)O` [Tirofiban] the “EFFECT on ENOX test” value (0-5600 ng/ml) was “No effect at 0-5600 ng/ml” and the “sensitivity of the ENOX test” value was “insensitive”.

`O=C(c1ccccc1)c1ccc2n1CCC2C(=O)O` (centres unmarked) [Ketorolac tromethamine] was tested, and the “EFFECT on ENOX test” value (0-12 ng/ml) was “No effect at 0-12 ng/ml”.
